# Target: T1, MMP-13 (Homo sapiens, UniProt P45452)
# T1 construct: catalytic domain (^104Tyr˜^267Gly) was amplified with RT-PCR; His-tag; enterokinase digestion-site; made in house
# Assay: Assay for inhibitory activities on MMP-13
# Format: biochemical
# Conditions: catalytic domain, substrate MOCAc-Pro-Leu-Gly-Leu-A2Pr(DNP)-Ala-Arg-NH2; read-out: MMP-13 (IC50μM)
# Description: In regard to MMP-13, mRNA was prepared from carcinoma cell SW1353 derived from human cartilage stimulate by IL-1, TNF and catalytic domain (^[…]) was amplified with RT-PCR. This was cloned in Escherichia. coli expression vector […] inserted with His-tag sequence and enterokinase digestion-site, induced and expressed by IPTG (Isopropyl-β-D-thiogalactopyranoside) and expressed in a insoluble fraction. Isolation of MMP-13 from an insoluble fraction was carried out by dissolving in modifier (6M urea) by a usual method and purification with metal chelate chromatography (Ni […] Sepharose). […] The enzymatic activity on MMP was analyzed by the method described in “C. Graham Knight, Frances Willenbrock and Gillian Murphy: A novel coumarin-labelled peptide for sensitive continuous assays of the matrix metalloproteinases: […] The substrate: MOCAc-[…] was purchased from Peptide Institute, Inc., Osaka, Japan.
row,SMILES,IC50
1,O=C(O)[C@@H](Cc1ccccc1)NS(=O)(=O)c1ccc(C#Cc2ccc3ccccc3c2)cc1 [Compound G-5],> 10 µM
2,O=C(O)[C@H](Cc1c[nH]c2ccccc12)NS(=O)(=O)c1ccc(C#Cc2ccc3ccccc3c2)cc1 [Compound G-6],0.893 µM
3,O=C(O)[C@H](Cc1ccccc1)NS(=O)(=O)c1ccc(C#Cc2ccc3c(c2)OCO3)cc1 [Compound G-9],0.0366 µM
4,O=C(O)[C@H](CO)NS(=O)(=O)c1ccc(C#Cc2ccc3c(c2)OCO3)cc1 [Compound G-12],0.147 µM
5,CC(C)C[C@@H](NS(=O)(=O)c1ccc(C#Cc2ccc3[nH]c(=O)sc3c2)cc1)C(=O)O [Compound G-15],1.09 µM
6,O=C(O)[C@@H](Cc1ccccc1)NS(=O)(=O)c1ccc(C#Cc2ccc3c(c2)OCO3)s1 [Compound H-1],0.044 µM
7,O=C(O)[C@@H](Cc1ccccc1)NS(=O)(=O)c1ccc(C#Cc2ccc3ccccc3c2)s1 [Compound H-2],> 10 µM
8,O=C(O)c1ccc(C#Cc2ccc(S(=O)(=O)N[C@H](Cc3ccccc3)C(=O)O)s2)cc1 [Compound H-3],6 µM
9,Cc1ccc(C#Cc2ccc(S(=O)(=O)N[C@H](Cc3c[nH]c4cccc(O)c34)C(=O)O)s2)cc1 [Compound H-5],0.0328 µM
10,Cc1ccc(C#Cc2ccc(S(=O)(=O)N[C@H](Cc3c[nH]c4c(O)cccc34)C(=O)O)s2)cc1 [Compound H-6],0.0113 µM
11,O=C(O)[C@@H](Cc1ccccc1)NS(=O)(=O)c1ccc(C#Cc2cccc3ccccc23)s1 [Compound H-7],> 10 µM
12,Cc1ccc(C#Cc2ccc(S(=O)(=O)N[C@H](CCC(=O)O)C(=O)O)s2)cc1 [Compound H-8],0.151 µM
13,O=C(O)[C@H](Cc1ccccc1)NS(=O)(=O)c1ccc(C#Cc2ccc3ccccc3c2)s1 [Compound H-9],> 10 µM
14,CC(C)C[C@@H](NS(=O)(=O)c1ccc(C#Cc2ccc3ccccc3c2)s1)C(=O)O [Compound H-10],1.37 µM
15,C[C@@H](NS(=O)(=O)c1ccc(C#Cc2ccc(F)c(F)c2)s1)C(=O)O [Compound H-11],0.573 µM
16,COc1ccc2cc(C#Cc3ccc(S(=O)(=O)N[C@H](Cc4ccccc4)C(=O)O)s3)ccc2c1 [Compound H-12],0.15 µM
17,Cc1ccc(C#Cc2ccc(S(=O)(=O)N[C@H](Cc3ccccc3)C(=O)O)s2)cc1F [Compound H-13],0.0604 µM
18,O=C(O)[C@@H](Cc1ccccc1)NS(=O)(=O)c1ccc(C#CC2=CCCCC2)s1 [Compound H-14],0.153 µM

row,SMILES,IC50
1,O=C(O)[C@@H](Cc1ccccc1)NS(=O)(=O)c1ccc(-c2nnn(-c3ccc(Br)cc3)n2)cc1 [Compound I-1],0.036 µM
2,CC(=O)NCCc1ccc(-n2nnc(-c3ccc(S(=O)(=O)N[C@H](Cc4ccccc4)C(=O)O)cc3)n2)cc1 [Compound I-2],0.01 µM
3,NCCc1ccc(-n2nnc(-c3ccc(S(=O)(=O)N[C@H](Cc4ccccc4)C(=O)O)cc3)n2)cc1 [Compound I-3],0.029 µM
4,CS(=O)(=O)OCCc1ccc(-n2nnc(-c3ccc(S(=O)(=O)N[C@H](Cc4ccccc4)C(=O)O)cc3)n2)cc1 [Compound I-4],0.0082 µM
5,CCCCc1ccc(-n2nnc(-c3ccc(S(=O)(=O)N[C@H](Cc4ccccc4)C(=O)O)cc3)n2)cc1 [Compound I-5],0.0179 µM
6,CSc1ccc(-c2nnn(-c3ccc(S(=O)(=O)N[C@H](Cc4ccccc4)C(=O)O)cc3)n2)cc1 [Compound J-1],0.0485 µM
7,O=C(O)[C@H](Cc1ccccc1)NS(=O)(=O)c1ccc(-n2nnc(-c3ccc4ccccc4c3)n2)cc1 [Compound J-3],> 10 µM
8,CSc1ccc(-c2ccc(S(=O)(=O)NC(C(=O)O)C(C)C)cc2)s1 (centres unmarked) [Compound K-1],0.0202 µM
9,CCCCc1ccc(-c2ccc(-c3ccc(S(=O)(=O)N[C@@H](C(=O)O)C(C)C)cc3)s2)cc1 [Compound K-2],0.0116 µM
10,Cc1ccc(-c2ccc(-c3ccc(S(=O)(=O)N[C@H](C)C(=O)O)cc3)s2)cc1 [Compound K-3],0.095 µM
11,CSCC[C@@H](NS(=O)(=O)c1ccc(-c2ccc(-c3ccc(C)cc3)s2)cc1)C(=O)O [Compound K-4],0.0938 µM
12,CSc1ccc(-c2ccc(-c3ccc(S(=O)(=O)N[C@@H](C(=O)O)C(C)C)cc3)s2)cc1 [Compound K-5],0.00526 µM
13,Cc1ccc(-c2ccc(-c3ccc(S(=O)(=O)N[C@H](CC(C)C)C(=O)O)cc3)s2)cc1 [Compound K-6],0.225 µM
14,Cc1ccc(-c2ccc(-c3ccc(S(=O)(=O)N[C@@H](C(=O)O)C(C)C)s3)s2)cc1 [Compound L-1],0.031 µM
15,CSc1ccc(-c2ccc(-c3ccc(S(=O)(=O)N[C@@H](C(=O)O)C(C)C)s3)s2)cc1 [Compound L-2],0.0147 µM
16,Cc1ccc(-c2ccc(-c3ccc(S(=O)(=O)N[C@H](Cc4ccccc4)C(=O)O)s3)s2)cc1 [Compound L-3],0.109 µM
17,Cc1ccc(-c2ccc(-c3ccc(S(=O)(=O)NCC(=O)O)s3)s2)cc1 [Compound L-4],0.281 µM
18,Cc1ccc(-c2ccc(-c3ccc(S(=O)(=O)N[C@H](C(=O)O)C(C)C)s3)s2)cc1 [Compound L-5],0.134 µM

# Results, then the compound that gave them:
row,IC50,SMILES
1,> 10 µM,COc1ccc2cc(-c3nc(-c4ccc(S(=O)(=O)N[C@H](C)C(=O)O)cc4)cs3)ccc2c1 [Compound M-2]
2,0.07 µM,O=C(O)[C@@H](Cc1ccccc1)NS(=O)(=O)c1ccc(-c2ccc3ccccc3c2)s1 [Compound N-4]
3,0.114 µM,O=C(O)[C@@H](Cc1ccccc1)NS(=O)(=O)c1ccc(-c2ncc(-c3ccccc3)s2)s1 [Compound N-7]
4,0.182 µM,CCc1ccc(-c2nc(-c3ccc(S(=O)(=O)N[C@H](Cc4ccccc4)C(=O)O)s3)no2)cc1 [Compound N-8]
5,> 10 µM,O=C(O)[C@H]1[C@@H]2CC[C@@H](C2)[C@@H]1NS(=O)(=O)c1ccc(-c2ccon2)s1 [Compound O-1]
6,0.34 µM,O=C(O)[C@H]1[C@@H]2CC[C@@H](C2)[C@@H]1NS(=O)(=O)c1ccc(-c2ccc(N3CCCC3)cc2)s1 [Compound O-2]
7,0.353 µM,CN(C)c1ccc(-c2ccc(S(=O)(=O)N[C@H]3CCC[C@@H]3C(=O)O)s2)cc1 [Compound O-3]
8,0.0114 µM,CCCCc1ccc(-n2nnc(-c3ccc(S(=O)(=O)NC4(C(=O)O)CCCCC4)cc3)n2)cc1 [Compound O-4]
9,> 10 µM,Cc1ccc(-c2ccc(-c3ccc(S(=O)(=O)NCCCC(=O)O)cc3)s2)cc1 [Compound O-5]
10,3.14 µM,O=C(O)CCCNS(=O)(=O)c1ccc(-c2ccc(N3CCCC3)cc2)s1 [Compound O-6]
11,0.883 µM,CSc1ccc(-c2ccc(S(=O)(=O)N3CCNC(=O)C3C)cc2)cc1 (centres unmarked) [Compound O-7]
12,2.99 µM,CC1C(=O)NCCN1S(=O)(=O)c1ccc(-c2ccc(N3CCOCC3)cc2)s1 (centres unmarked) [Compound O-8]
13,> 10 µM,Cc1ccc(C#Cc2ccc(S(=O)(=O)Nc3cc(Cl)ccc3C(=O)O)s2)cc1 [Compound O-9]
14,0.6 µM,O=C(O)[C@@H]1[C@@H](NS(=O)(=O)c2ccc(-c3ccc(N4CCCC4)cc3)s2)[C@H]2C=C[C@@H]1C2 [Compound O-10]

# — patent US20050227994A1, “Decomposition inhibitor for extracellular matrix of cartilage” (Shionogi & Co., Ltd., priority 2002, published 2005)
